Experimental data taken from US20040019022A1, “Use of 2,3 alkylcarbonyloxybenzoic acids, derivatives and analogues therefrom in the treatment of tissue and cellular dysfunction, damage and injury in mammals” (priority 2002, published 2004).

Tests used:
[1] = system: guinea pigs administered aerosolized LPS; assay: Aerosolized LPS exposure in guinea pigs, bronchoalveolar lavage (BAL) 24 h after LPS; assay type: in vivo; settings: guinea pig
Protocol: The potential therapeutic effect of 2,3-alkylcarbonyloxybenzoic acids is exemplified by data generated in the study of 2,3-diacetoxybenzoic acid in guinea pigs. 2,3-diacetoxybenzoic acid was administered via intra-peritoneal injection to guinea pigs administered aerosolized LPS. Each animal was treated with 150 mg/kg of 2,3-diacetoxybenzoic acid or vehicle 1 hour prior to and 4 hours following LPS administration. Twenty four hours following administration of LPS, bronchoalveolar lavage (BAL) was performed. Intra-peritoneal administration of 2,3-diacetoxybenzoic acid appeared to have no effect on LPS-induced neutrophil recruitment into the lung. However, 2,3-diacetoxybenzoic acid treatment did produce a statistically significant reduction in albumin leakage (44%), a component of LPS-induced edema formation indicating a decrease in lung vascular permeability.

[2] = system: rat model of cecal ligation and perforation (CLP)-induced sepsis; assay: Awake rat model of cecal ligation and perforation (CLP)-induced sepsis, acute lung injury; assay type: in vivo
Description: An awake rat model of cecal ligation and perforation (CLP)-induced sepsis was employed to examine the therapeutic effect of 2,3-diacetoxybenzoic acid in sepsis induced acute lung injury. Oxidative stress resulting in increased lung permeability is characteristic of the onset and progression of acute lung injury in this model. […] 2,3-Diacetoxybenzoic acid treated animals appeared to have improvement in sepsis-associated symptoms such as lethargy, diarrhea, anorexia, and abdomenal distention.

[3] = 150 mg/kg i.p. 1 h prior to and 4 h post LPS, BAL 24 h after LPS, mean ± SEM, n = 5
[4] = 2.5 mg/kg/h continuous infusion
[5] = 2.5 mg/kg/h continuous infusion from 1 h to 24 h after induction of sepsis, 24 hours, mean ± SEM

`CC(=O)Oc1cccc(C(=O)O)c1OC(C)=O` [DABA, 2,3-diacetoxybenzoic acid] was tested, and the “effect on LPS-induced neutrophil recruitment into the lung” value ([1]; 150 mg/kg i.p. 1 h prior to and 4 h following LPS) was “no effect”, the “reduction in albumin leakage” value ([1]; 150 mg/kg i.p. 1 h prior to and 4 h following LPS, versus vehicle, statistically significant) was 44% and the “Albumin (BAL fluid)” value [1, 3] was 605 ± 78 μg/mL BALF. For the same compound, the “Neutrophil (BAL fluid)” value [1, 3] was 80 ± 11 ×10^6/mL BALF, the “Total Cell (BAL fluid)” value [1, 3] was 112 ± 14 ×10^6/mL BALF and the body temperature [2, 4] was “normalized”. For the same compound, the cardiac output [2, 4] was “normalized”, the respiratory rate [2, 4] was “normalized” and the “sepsis-associated symptoms such as lethargy, diarrhea, anorexia, and abdomenal distention” value [2, 4] was “improvement”. For the same compound, the “lung microvascular permeability increases” value ([2]; 2.5 mg/kg/h continuous infusion from 1 h to 24 h after induction of sepsis) was “reduced”, the “Systemic WBC, 1 hour” value ([2]; 2.5 mg/kg/h continuous infusion from 1 h to 24 h after induction of sepsis, 1 hour, mean ± SEM) was 6.7 ± 1.1 ×10^9/liter and the “BAL WBC, 24 hours” value [2, 5] was 0.04 ± 0.02 ×10^9/liter. The “BAL protein, 24 hours” value [2, 5] was 1.45 ± 1.73 mg/dL and the “Systemic WBC, 24 hours” value [2, 5] was 3.6 ± 1.4 ×10^9/liter.
